B1: human prolactin (protein, UniProt P01236 29-227, looked up)
Prolactin: LPICPGGAARCQVTLRDLFDRAVVLSHYIHNLSSEMFSEFDKRYTHGRGFITKAINSCHTSSLATPEDKEQAQQMNQKDFLSLIVSILRSWNEPLYHLVTEVRGMQEAPEAILSKAVEIEEQTKRLLEGMELIVSQVHPETKENEIYPVWSGLPSLQMADEESRLSAYYNLLHCLRRDSHKIDNYLKLLKCRIIHNNNC

What was measured:
[1] = system: MCF-7 human breast cancer cells; test: ALDH activity by flow cytometry (ALDEFLUOR), MCF-7 tumorspheres (Example 1); type: cell-based; conditions: 11 days, hPRL 0.5 μg/ml, Dox 25 ng/ml, FIG. 2
Experimental: (§1) MCF-7 human breast cancer cells and primary mouse breast cancer cells isolated from MMTV-neu transgenic mice were used in this study. Tumor sphere formation assay and aldehyde dehydrogenase (ALDH) activity measured by flow cytometry were used to measure the functional response of the CSCs after 11 days of co-treatment with human prolactin (hPRL) and doxorubicin (Dox).
(§2) Cells were treated with 0.5 μg/ml of hPRL, 25 ng/ml of doxorubicin or a combination of 0.5 μg/ml hRPL and 25 ng/ml doxorubicin. After 11 days of treatment, the cells were analyzed for tumorsphere formation and ALDH activity levels.
Accordingly, to determine the number of CSCs in a tumor sample, ALDH activity levels were determined by the ALDEFLUOR kit (StemCell Technologies, Vancouver, BC, Canada). Briefly, tumorspheres were dissociated by trypsin (Invitrogen, Carlsbad, Calif.) at 37° C. for 5 minutes and resuspended in ALDEFLUOR assay buffer containing ALDH substrate (BODIPY-aminoacetaldehyde, 1 μM per 1×10^6 cells). An aliquot of the cells were treated with 7.5 μM of diethylaminobenzaldehyde (DEAB), an inhibitor of ALDH, as the negative control. Samples were incubated in 37° C. with 5% CO2 for 45 minutes and analyzed by FACSCalibur (Becton Dickinson Co., Franklin Lakes, N.J.). The ALDH-positive gate was established using the negative control treated with DEAB.

[2] = system: MCF-7, SKBR3 and McNeuA breast cancer cell lines; test: ALDH testing, cell lines of Example 2; type: cell-based, human and mouse; conditions: Example 2 cell lines; 12, 24 and 48 hours of treatment
From the text: (§3) Three breast cancer cell lines are used in this assay: two human breast cancer cell lines, MCF-7 (ER^high, HER2^low) and SKBR3 (ER^low, HER2^high), and one mouse breast cancer cell line that was established from HER2/neu transgenic mice (McNeuA). After establishing the dose response curves, all three cell lines will be used for two in vitro studies. The cells will be treated with a standard chemotherapeutic drug, doxorubicin (Dox) alone (Max or IC50) or in combination with hPRL (Max or IC50).
Next, the CSC population is measured by two sets of the stem cell markers, aldehyde dehydrogenase (ALDH) and CD44^high/CD24^low after a 12-, 24- and 48 hours of treatment using flow cytometry methods as described in Example 2.

McNeuA implanted mice = test: In vivo combination therapy on McNeuA implanted FVB mice (Example 2); parameters: species or system mouse; conditions: four-week regimen, weekly Dox with or without daily hPRL injection; for Time to relapse: X, Y are placeholders
From the text: Finally, the efficacy of the treatment is examined in vivo by implanting McNeuA cell into FVB mice. Two weeks after tumor cell inoculation, a four-week treatment regimen is applied (weekly Dox with or without daily hPRL injection). Tumor growth and the time to relapse is monitored and compared among groups.

[3] = system: MCF-7 human breast cancer cells; test: Tumorsphere formation assay, MCF-7 (Example 1); type: cell-based; conditions: 11 days of treatment, hPRL 0.5 μg/ml, Dox 25 ng/ml, tumorspheres greater than 100 μm, FIG. 1
Experimental: Tumor sphere formation assay and aldehyde dehydrogenase (ALDH) activity measured by flow cytometry were used to measure the functional response of the CSCs after 11 days of co-treatment with human prolactin (hPRL) and doxorubicin (Dox). MCF-7 and MMTV-neu cells were cultured by standard methods known in the art. Briefly, unsorted MCF-7 cells were plated in ultra-low attachment plate (Corning Inc, Corning, N.Y.) at a density of 5000 cells/ml in serum-free Dulbecco's Modified Eagle Medium—F12 (DMEM-F12) supplemented with 0.4% bovine serum albumin (BSA), 10 ng/mL of basic fibroblast growth factor (bFGF), 20 ng/ml of epidermal growth factor (EGF), 5 μg/ml of insulin (all from Sigma-Aldrich Co., St. Louis, Mo.). Tumorspheres were allowed to form in 37° C. with 5% CO2 for 10 days. Culture medium were replaced two times in the course of treatment. Similar culturing method was applied to MMTV-neu cells in the exception of MMTV-neu cells were plated at a density of 200,000 cells/ml. Cells were treated with 0.5 μg/ml of hPRL, 25 ng/ml of doxorubicin or a combination of 0.5 μg/ml hRPL and 25 ng/ml doxorubicin. After 11 days of treatment, the cells were analyzed for tumorsphere formation and ALDH activity levels. Tumorsphere formation was determined by spheres formed in the culture medium. Spheres number were counted manually under four random fields of the 24-well at 40× magnification.

[4] = system: MCF-7, SKBR3 and McNeuA breast cancer cell lines; test: Tumorsphere evaluation, all cell lines tested (Example 2); type: cell-based, human and mouse; conditions: 7 and 14 days of treatment
From the text: as §3
First, the functional response of CSCs is measured by standard colony formation and tumorsphere formation assays after 7- and 14 days of treatment using methods described above in Example 2.

[5] = system: primary mouse breast cancer cells isolated from MMTV-neu transgenic mice; test: Tumorsphere formation assay, MMTV-neu primary cells (Example 1); type: cell-based; conditions: 11 days, hPRL 0.5 μg/ml, ±0.34, p<0.001, data not shown
Experimental: as §1
MCF-7 and MMTV-neu cells were cultured by standard methods known in the art. Briefly, unsorted MCF-7 cells were plated in ultra-low attachment plate (Corning Inc, Corning, N.Y.) at a density of 5000 cells/ml in serum-free Dulbecco's Modified Eagle Medium—F12 (DMEM-F12) supplemented with 0.4% bovine serum albumin (BSA), 10 ng/mL of basic fibroblast growth factor (bFGF), 20 ng/ml of epidermal growth factor (EGF), 5 μg/ml of insulin (all from Sigma-Aldrich Co., St. Louis, Mo.). Tumorspheres were allowed to form in 37° C. with 5% CO2 for 10 days. Culture medium were replaced two times in the course of treatment. […]
as §2
Tumorsphere formation was determined by spheres formed in the culture medium. Spheres number were counted manually under four random fields of the 24-well at 40× magnification.

| Molecule | number of ALDH+ cells (ALDH positive cell population) [1] | number of ALDH− cells [1] | number of ALDH-negative cells [2] | number of ALDH-positive cells [2] | Tumor size (McNeuA implanted mice) | Time to relapse (McNeuA implanted mice) | number of tumorspheres formed / tumorspheres formation [3] | tumorsphere formation (number and size of tumorspheres) [4] | increase of tumorspheres formation [5] [fold] |
| --- | --- | --- | --- | --- | --- | --- | --- | --- | --- |
| COc1cccc2c1C(=O)c1c(O)c3c(c(O)c1C2=O)C[C@@](O)(C(=O)CO)C[C@@H]3O[C@H]1C[C@H](N)[C@H](O)[C@H](C)O1 [Dox, doxorubicin] | no significant change | decreased | reduced | unaffected | decrease | X days after last treatment | negligible effect | negligible affect | – |
| B1 | – | – | negligible affect | negligible affect | increase comparable to “no | no remission | slightly increased | negligible affect | 2.3 |

— US9370554B2, “Method for treating breast cancer with prolactin receptor agonists” (Orbis Health Solutions LLC, priority 2010, dated 2016)
